This is an account of results in patent US7662626B2, “Cells and methods for estimation of effects on neurological dysfunction” (Kabushiki Kaisha Toshiba, priority 2005, dated 2010).

Type in all cases: cell-based, mouse
The subject of data set [1] is aryl hydrocarbon receptor. The data set can be described thus: CYP1A1 gene expression by reverse transcription PCR in selected cell strains. The following applies: 30 nM, 24 hours, with vs without; both selected cell strains. From the text: (2) Cells functionally expressed the aryl hydrocarbon receptor protein are selected from the cells obtained in (c). A gene known to be able to induce expression of the gene through activation of the aryl hydrocarbon receptor is used as a marker as an indication of the selection. Examples of the gene include genes for CYP1A1, UGT glycosyltransferase 1 family, polypeptide A6 (UGT1A6) or glutathione-S-transferase (GST). The selection procedure includes, for example, culturing the cells to be selected in a conventional culture medium such as DF1:1 medium containing 10% of fetal bovine serum for 1 to 5 days; culturing the cells in a conventional culture medium such as DF1:1 medium containing 10% of fetal bovine serum for 1 week by adding a ligand of aryl hydrocarbon receptor; and extracting RNAs from the cells to detect the expression of the marker gene by a known RNA detection method such as northern hybridization and reverse transcription PCR. Alternatively, the protein translated from the marker gene is detected by a known detection method such as western blotting. The cells confirmed to induce the expression of the marker gene by this confirmation are selected.
After cultivating these cell strains in DF1:1 suppremented with or without 30 nM of 2,3,7,8-TCDD for 24 hours, total RNAs were extracted from the cells. An RNeasy kit was used for extraction of total RNA. […]

Data set [2] concerns Neuro2a. The data set can be described thus: CYP1A1 gene expression by reverse transcription PCR in parent Neuro2a. The following applies: 30 nM, 24 hours; parent Neuro2a (no AhR gene detected). As for the experimental part:
After cultivating these cell strains in DF1:1 suppremented with or without 30 nM of 2,3,7,8-TCDD for 24 hours, total RNAs were extracted from the cells. An RNeasy kit was used for extraction of total RNA. The extracted RNA was reverse-transcripted using an oligo(dT) primer. Subsequently, expression of CYP1A1 gene was confirmed by 25 cycles of PCR comprising 1 cycle with denaturation of 94° C./30 second, annealing of 55° C./30 seconds and extension of 72° C./30 seconds. CYP1A1 gene is one of genes, of which expression thereof is induced by binding of the aryl hydrocarbon receptor activated by binding of a ligand to XRE (xenobiotic responsive element) on DNAs. A forward primer 5′-CCCACAgCACCACAAgAgATA (SEQ ID NO: 5) and a reverse primer 5′-AAgTAggAggCACAATgTC (SEQ ID NO: 6) were used as primers for PCR. As a result, expression of CYP1A1 gene was increased by adding 2,3,7,8-TCDD in both of two selected cell strains. While the same experiment was performed with respect to Neuro2a, no increase of the amount of expression of CYP1A1 gene was observed.

Data set [3] deals with tau protein and TH protein. As to the kind of experiment: Marker protein expression (tau, TH) by western blotting in selected cell strains. The conditions noted are these: 10 nM, three weeks, with vs without; selected two cell strains (FIG. 4). The procedure: After the selected two cell strains were cultured in DF1:1 medium supplemented with 10 nM of 2,3,7,8-TCDD for three weeks, the amounts of expression of the tau protein and TH protein were confirmed by extracting the proteins and by conducting western blotting with a tau protein antibody and TH protein antibody. The amounts of expression of the tau protein and TH protein were increased in any of the selected two cell strains as compared with neurotoxicity responsive cells cultured without adding 2,3,7,8-TCDD (FIG. 4).

For data set [4], the system named is TH gene, Cdc42 gene and tau gene. As to the kind of experiment: Marker gene expression (TH, Cdc42, tau) by reverse transcription PCR in selected cell strains. The following applies: selected two cell strains cultured with vs without 2,3,7,8-TCDD (FIG. 3). The procedure:
Total RNAs were extracted with an RNeasy kit after culturing the selected two cell strains in DF1:1 medium supplemented with 2,3,7,8-TCDD, and cDNA was synthesized by a reverse transcription reaction. Subsequently, using cDNA synthesized above as a template and ExTaq (manufactured by Takara Bio Inc.), expression of the TH gene was confirmed by 25 cycles of PCR comprising one cycle with denaturation of 94° C./30 second, annealing of 60° C./30 seconds and extension of 72° C./30 seconds. Also, expression of the Cdc42 gene and tau gene was confirmed by 25 cycles of PCR comprising one cycle with denaturation of 94° C./30 second, annealing of 58° C./30 seconds and extension of 72° C./30 seconds. A forward primer 5′-CCACggTgTACTggTTCACT (SEQ ID NO: 7) and a reverse primer 5′-ggCATAgTTCCTgAgCTTgT (SEQ ID NO: 8) were used as primers for the TH gene; a forward primer 5′-gATACTgCAgggCAAgAgg (SEQ ID NO: 9) and a reverse primer 5′-CAggCACCCACTTTTCTTTC (SEQ ID NO: 10) were used as primers for the Cdc42 gene; and a forward primer 5′-TCCggAgAACgAAgCggCTACAgC (SEQ ID NO: 11) and a reverse primer 5′-TgCTgAggTgCCgTggAgATgTgT (SEQ ID NO: 12) were used as primers for the tau gene. As a result, the amounts of expression of the TH gene, Cdc42 gene and tau gene were increased in any of the two selected cell strains cultured with 2,3,7,8-TCDD as compared with the cell strains cultured without 2,3,7,8-TCDD (FIG. 3).

The subject of data set [5] is Neuro2a transfected with aryl hydrocarbon receptor-expressing nucleic acid pcDNA4-rAhR. As to the kind of experiment: Neurite outgrowth (cell morphology) of cell strains transfected with pcDNA4-rAhR. The conditions noted are these: 10 nM, DF1:1 medium, 1 to 3 weeks; two selected AhR-transfected Neuro2a strains (FIG. 2). As for the experimental part:
(3) Cells in which neurites outgrow this observed by adding ligand of the aryl hydrocarbon receptor, are selected from the cell strains obtained in (c). Cells into which the receptor-expressing nucleic acid is transfected are cultured in a conventional culture medium such as DF1:1 medium containing 10% fetal bovine serum with or without adding ligand of the aryl hydrocarbon receptor for 1 to 3 weeks. And morphological changes are compared between the two types of the cells described above. The number of the neurite from the cell, the length of the neurite, and the number of the cells in which the neurite is outgrown are compared when the morphology changes of the cell strain are used as indications. It is more preferable that comparison of increase of a proportion of a number of cells with neurite having a twofold length of a diameter of the each cells, to the total cells which are in contacted with a ligand of aryl hydrocarbon receptor. The cells in which the neurite is outgrown by adding ligand of the aryl hydrocarbon receptor are selected, by comparing the cells in which the receptor-expressing nucleic acid is transfected by adding the ligand of the aryl hydrocarbon receptor with the cells in which the receptor-expressing nucleic acid is transfected without adding the ligand of the aryl hydrocarbon receptor. […]

Regarding `Clc1cc2c(cc1Cl)Oc1cc(Cl)c(Cl)cc1O2` [2,3,7,8-TCDD, 2,3,7,8-tetrachlorodibenzo-p-dioxin], the “expression of CYP1A1 gene” value in data set [1] is on record as “increased”. The “amount of expression of CYP1A1 gene” value in data set [2] is listed as “no increase”. Further, in data set [3], the “amount of expression of the TH protein” value is “increased” and the “amount of expression of the tau protein” value is on record as “increased”. For the same compound, in data set [4], the “amount of expression of the Cdc42 gene” value was “increased”, the “amount of expression of the TH gene” value is reported as “increased” and the “amount of expression of the tau gene” value is reported as “increased”. The “neurite outgrowth (morphology of the cell)” value in data set [5] is “particularly high proportion of neurite outgrowth”.
